For 38 compounds, inhibition results are on record in patent publication US6110939A, “(Benzimidazolyl- and imidazopyridinyl) containing 1-(1,2-disubstituted piperidinyl) derivatives” (Janssen Pharmaceutica N.V., priority 1995, dated 2000).

Usually inhibition stands for the change of the read-out against control, counted positive when it falls. A higher inhibition goes with strong suppression.

One assay has as its system substance P induced relaxation of the pig coronary arteries. The assay is described as follows: Antagonism of substance P induced relaxation of the pig coronary arteries. The assay is classed as cell-based. As to conditions: Sus scrofa, 0.5 h; test compound 1 × 10^-8; response to 10^-9 M substance P; 30 min incubation. As for the experimental part:
Antagonism of substance P induced relaxation of the pig coronary arteries
Segments of coronary arteries taken from pigs (killed by injection of an overdose of sodium pentobarbital) were inverted and mounted for recording of isometric tension in organ baths (volume 20 ml) with the endothelium at the outside. The preparations were bathed in Krebs - Henseleit solution. The solution was kept at 37° C. and gassed with a mixture of O2 /CO2 (95/5). After stabilisation of the preparations, prostaglandin F2α (10^-5 M) was administered to induce a contraction. This was repeated until contractile responses became stable. Then prostaglandin F2α was again administered and substance P (3×10^-10 M and 10^-9 M cumulatively) was added. […] After washing away the agonists, a known concentration of a compound of formula (I) was added. After an incubation period of 30 minutes, prostaglandin F2α (10^-5 M) and the same concentrations of substance P as described above were again administered in the presence of the compound to be tested.
Regarding `Cc1cc(C)cc(C(=O)N2CC[C@@H](N3CCC(Nc4nc5ccccc5n4Cc4cccs4)CC3)C[C@@H]2Cc2ccccc2)c1` (relative stereo) [Compound 8], the inhibition at 0.01 µM was 14.7%.

The assay is the same for the next values; noted with them: Sus scrofa, 0.5 h; test compound 3 × 10^-7; response to 10^-9 M substance P; 30 min incubation.
As for `Cc1cc(C)cc(C(=O)N2CC[C@H](N3CCC(Nc4nc5ccccc5n4Cc4ccccc4F)CC3)C[C@@H]2Cc2ccccc2)c1` (relative stereo) [Compound 3], the inhibition at 0.3 µM was 35.2%.

Still in this assay, the particulars now being: Sus scrofa, 0.5 h; test compound 3 × 10^-8; response to 10^-9 M substance P; 30 min incubation.
Take `CCOCCn1c(NC2CCN([C@H]3CCN(C(=O)c4cc(C)cc(C)c4)[C@@H](Cc4ccccc4)C3)CC2)nc2ccccc21` (relative stereo) [Compound 1]: 0.03 µM produced 15% inhibition.
Still for that read-out and setting: next, `CCOCCn1c(NC2CCN([C@@H]3CCN(C(=O)c4cc(C)cc(C)c4)[C@@H](Cc4ccccc4)C3)CC2)nc2ccccc21` (relative stereo) [Compound 2]: 41.1%.
`Cc1cc(C)cc(C(=O)N2CC[C@@H](N3CCC(Nc4nc5ccccc5n4Cc4ccccc4F)CC3)C[C@@H]2Cc2ccccc2)c1` (relative stereo) [Compound 4]: the inhibition at 0.03 µM amounted to 10.2%.
The same measure, in the same setting: in the case of `CCOCCn1c(NC2CCN([C@H]3CCN(C(=O)c4cc(C(F)(F)F)cc(C(F)(F)F)c4)[C@@H](Cc4ccccc4)C3)CC2)nc2ccccc21` (relative stereo) [Compound 5] it was 80.7%.
Still for that read-out and setting: next, `CCOCCn1c(NC2CCN([C@@H]3CCN(C(=O)c4cc(C(F)(F)F)cc(C(F)(F)F)c4)[C@@H](Cc4ccccc4)C3)CC2)nc2ccccc21` (relative stereo) [Compound 6, (±)-trans-1-[1,3-bis(trifluoromethyl)-benzoyl]-4-[4-[[1-(2-ethoxyethyl)-1H-benzimidazol-2-yl]amino]-1-piperidinyl]-2-(phenylmethyl)piperidine]: 85.3%.
`Cc1cc(C)cc(C(=O)N2CC[C@H](N3CCC(Nc4nc5ccccc5n4Cc4cccs4)CC3)C[C@@H]2Cc2ccccc2)c1` (relative stereo) [Compound 7] yielded an inhibition at 0.03 µM of 54%.
Turning to `Cc1cc(C)cc(C(=O)N2CC[C@H](N3CCC(Nc4nc5ccccc5n4Cc4cscn4)CC3)C[C@@H]2Cc2ccccc2)c1` (relative stereo) [Compound 9], the inhibition at 0.03 µM came to 78.1%.
The same measure, in the same setting: next, `Cc1cc(C)cc(C(=O)N2CC[C@@H](N3CCC(Nc4nc5ccccc5n4Cc4cscn4)CC3)C[C@@H]2Cc2ccccc2)c1` (relative stereo) [Compound 10]: 89.3%.
Still for that read-out and setting: next, `Cc1cc(C)cc(C(=O)N2CC[C@H](N3CCC(Cc4nc5ccccc5n4Cc4csc(C)n4)CC3)C[C@@H]2Cc2ccccc2)c1` (relative stereo) [Compound 11]: 81.1%; `Cc1cc(C)cc(C(=O)N2CC[C@@H](N3CCC(Cc4nc5ccccc5n4Cc4csc(C)n4)CC3)C[C@@H]2Cc2ccccc2)c1` (relative stereo) [Compound 12]: 92.3%; `Cc1ncc(Cn2c(NC3CCN([C@H]4CCN(C(=O)c5cc(C(F)(F)F)cc(C(F)(F)F)c5)[C@@H](Cc5ccccc5)C4)CC3)nc3ccccc32)o1` (relative stereo) [Compound 15]: 84.6%.
The compound `Cc1ncc(Cn2c(NC3CCN([C@@H]4CCN(C(=O)c5cc(C(F)(F)F)cc(C(F)(F)F)c5)[C@@H](Cc5ccccc5)C4)CC3)nc3ccccc32)o1` (relative stereo) [Compound 16] returned an inhibition at 0.03 µM of 88.8%.
`Cc1nc(C)c(Cn2c(NC3CCN([C@H]4CCN(C(=O)c5cc(C(F)(F)F)cc(C(F)(F)F)c5)[C@@H](Cc5ccccc5)C4)CC3)nc3cccnc32)o1` (relative stereo) [Compound 17] returned an inhibition at 0.03 µM of 94.5%.
Still for that read-out and setting: next, `O=C(c1cc(C(F)(F)F)cc(C(F)(F)F)c1)N1CC[C@H](N2CCC(Oc3nc4ccccc4n3Cc3ccc(F)cc3)CC2)C[C@@H]1Cc1ccccc1` (relative stereo) [Compound 24]: 100%; `O=C(c1cc(C(F)(F)F)cc(C(F)(F)F)c1)N1CC[C@@H](N2CCC(Oc3nc4ccccc4n3Cc3ccc(F)cc3)CC2)C[C@@H]1Cc1ccccc1` (relative stereo) [Compound 25]: 100%; `O=C(c1cc(C(F)(F)F)cc(C(F)(F)F)c1)N1CC[C@H](N2CCC(Nc3nc4ccccc4n3Cc3ccc(F)cc3)CC2)C[C@@H]1Cc1ccccc1` (relative stereo) [Compound 26]: 82.2%.
`O=C(c1cc(C(F)(F)F)cc(C(F)(F)F)c1)N1CC[C@@H](N2CCC(Nc3nc4ccccc4n3Cc3ccc(F)cc3)CC2)C[C@@H]1Cc1ccccc1` (relative stereo) [Compound 27] came in with an inhibition at 0.03 µM of 92.8%.
The same measure, in the same setting: next, `Cc1ccc(Cn2c(NC3CCN([C@@H]4CCN(C(=O)c5cc(C(F)(F)F)cc(C(F)(F)F)c5)[C@H](Cc5ccccc5)C4)CC3)nc3ccccc32)o1` (relative stereo) [Compound 28]: 100%; `Cc1ccc(Cn2c(NC3CCN([C@@H]4CCN(C(=O)c5cc(C(F)(F)F)cc(C(F)(F)F)c5)[C@@H](Cc5ccccc5)C4)CC3)nc3ccccc32)o1` (relative stereo) [Compound 29]: 65.6%; `O=C(c1cc(C(F)(F)F)cc(C(F)(F)F)c1)N1CC[C@@H](N2CCC(Sc3nc4ccccc4n3Cc3ccc(F)cc3)CC2)C[C@@H]1Cc1ccccc1` (relative stereo) [Compound 35]: 88.5%.
On the same count and under the same terms, in the case of `O=C(c1cc(C(F)(F)F)cc(C(F)(F)F)c1)N1CC[C@@H](N2CCC(Cc3nc4ccccc4n3Cc3ccc(F)cc3)CC2)C[C@H]1Cc1ccccc1` (relative stereo) [Compound 40] it was 93.3%.
Compound `Cc1ccc(Cn2c(CC3CCN([C@@H]4CCN(C(=O)c5cc(C(F)(F)F)cc(C(F)(F)F)c5)[C@H](Cc5ccccc5)C4)CC3)nc3ccccc32)o1` (relative stereo) [Compound 42] gave an inhibition at 0.03 µM of 96.9%.
The same measure, in the same setting: next, `O=C(c1cc(C(F)(F)F)cc(C(F)(F)F)c1)N1CC[C@@H](N2CCC(Nc3nc4ccccc4n3Cc3ccc(CO)o3)CC2)C[C@@H]1Cc1ccccc1` (relative stereo) [Compound 43]: 85.2%.
Same read-out and setting: next, `O=C(c1cc(C(F)(F)F)cc(C(F)(F)F)c1)N1CC[C@@H](N2CCC(Nc3nc4ccccc4n3Cc3ccc(CO)o3)CC2)C[C@H]1Cc1ccccc1` (relative stereo) [Compound 44]: 91.5%.

Still in this assay, the particulars now being: Sus scrofa, 0.5 h; test compound 3 × 10^-9; response to 10^-9 M substance P; 30 min incubation.
Regarding `Cc1ncc(Cn2c(NC3CCN([C@@H]4CCN(C(=O)Nc5cc(C(F)(F)F)cc(C(F)(F)F)c5)[C@@H](Cc5ccccc5)C4)CC3)nc3ccccc32)o1` (racemic) [Compound 52, (±)-trans-N-[3,5-bis(trifluoromethyl)phenyl]-4-[4-[[1-[(2-methyl-5-oxazolyl)methyl]-1H-benzimidazol-2-yl]amino]-1-piperidinyl]-2-(phenylmethyl)-1-piperidinecarboxamide], the inhibition at 0.003 µM amounted to 6.3%.
The same measure, in the same setting: next, `Cc1nc(C)c(Cn2c(NC3CCN([C@@H]4CCN(C(=O)c5cc(C(F)(F)F)cc(C(F)(F)F)c5)[C@@H](Cc5ccccc5)C4)CC3)nc3cccnc32)o1` (relative stereo) [Compound 18]: 73.7%; `Cc1ccc(Cn2c(NC3CCN([C@H]4CCN(C(=O)c5cc(C(F)(F)F)cc(C(F)(F)F)c5)[C@@H](Cc5ccccc5)C4)CC3)nc3cccnc32)o1` (relative stereo) [Compound 19]: 79.5%; `Cc1ccc(Cn2c(NC3CCN([C@@H]4CCN(C(=O)c5cc(C(F)(F)F)cc(C(F)(F)F)c5)[C@@H](Cc5ccccc5)C4)CC3)nc3cccnc32)o1` (relative stereo) [Compound 20]: 68.9%.
`Cc1cc(C)cc(C(=O)N2CC[C@@H](N3CCC(Nc4nc5ccccc5n4Cc4ccc(C)o4)CC3)C[C@@H]2Cc2ccccc2)c1` (relative stereo) [Compound 32] yielded an inhibition at 0.003 µM of 20.1%.
Still for that read-out and setting: in the case of `O=C(c1cc(C(F)(F)F)cc(C(F)(F)F)c1)N1CC[C@@H](N2CCC(Cc3nc4ccccc4n3Cc3ccc(F)cc3)CC2)C[C@@H]1Cc1ccccc1` (relative stereo) [Compound 33] it was 56.8%.
As to `Cc1ncc(Cn2c(OC3CCN([C@@H]4CCN(C(=O)c5cc(C(F)(F)F)cc(C(F)(F)F)c5)[C@H](Cc5ccccc5)C4)CC3)nc3ccccc32)o1` (relative stereo) [Compound 36], the inhibition at 0.003 µM is 66%.
`Cc1ncc(Cn2c(OC3CCN([C@@H]4CCN(C(=O)c5cc(C(F)(F)F)cc(C(F)(F)F)c5)[C@@H](Cc5ccccc5)C4)CC3)nc3ccccc32)o1` (relative stereo) [Compound 37] yielded an inhibition at 0.003 µM of 70.5%.
`Cc1ccc(Cn2c(CC3CCN([C@@H]4CCN(C(=O)c5cc(C(F)(F)F)cc(C(F)(F)F)c5)[C@@H](Cc5ccccc5)C4)CC3)nc3ccccc32)o1` (relative stereo) [Compound 41] came in with an inhibition at 0.003 µM of 82.6%.
Same read-out and setting: in the case of `Cc1ncc(Cn2c(N[C@@H]3CCN(C(=O)c4ccc5ccccc5c4)[C@@H](Cc4ccccc4)C3)nc3ccccc32)o1` (relative stereo) [Compound 45] it was 13.1%; in that of `Cc1ncc(Cn2c(N[C@@H]3CCN(C(=O)c4ccco4)[C@@H](Cc4ccccc4)C3)nc3ccccc32)o1` (relative stereo) [Compound 46], 17.6%.
The same measure, in the same setting: next, `Cc1ncc(Cn2c(NC3CCN([C@@H]4CCN(C(=O)c5cc(Cl)cc(Cl)c5)[C@@H](Cc5ccccc5)C4)CC3)nc3ccccc32)o1` (relative stereo) [Compound 55]: 28.1%.
